We go through twelve molecules from patent US9993462B2, “Hydantoin derivative-containing pharmaceutical composition” (Chugai Seiyaku Kabushiki Kaisha, priority 2014, dated 2018).

The target of series [1] is T1, human PTH1R (Homo sapiens, UniProt Q03431).
T1 construct: expressed in transfected cells; host or cells: HKRK-B7 (LLC-PK1 porcine kidney cells stably expressing human PTH1R)
T1 sequence (Q03431 27-593): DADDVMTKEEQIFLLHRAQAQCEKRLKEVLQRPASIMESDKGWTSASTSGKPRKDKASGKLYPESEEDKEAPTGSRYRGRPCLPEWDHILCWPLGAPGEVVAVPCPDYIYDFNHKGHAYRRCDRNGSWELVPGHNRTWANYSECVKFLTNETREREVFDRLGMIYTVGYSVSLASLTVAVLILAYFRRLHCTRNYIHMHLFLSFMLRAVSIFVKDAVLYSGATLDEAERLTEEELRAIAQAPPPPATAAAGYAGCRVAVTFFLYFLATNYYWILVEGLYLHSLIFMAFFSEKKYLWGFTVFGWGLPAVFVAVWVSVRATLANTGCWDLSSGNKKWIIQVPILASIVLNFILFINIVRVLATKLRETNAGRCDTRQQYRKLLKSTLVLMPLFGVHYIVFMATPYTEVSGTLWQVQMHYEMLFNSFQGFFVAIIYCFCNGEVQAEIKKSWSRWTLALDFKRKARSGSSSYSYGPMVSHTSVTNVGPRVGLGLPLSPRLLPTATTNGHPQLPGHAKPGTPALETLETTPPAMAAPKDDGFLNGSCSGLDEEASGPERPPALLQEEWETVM
Nature of the series: In vitro cAMP signal activity via the human PTH1R (HKRK-B7 cells). It is filed as cell-based. Particulars: human PTH(1-34) at 100 nM = 100%; for EC20: concentration at 20% cAMP signaling activity. As for the experimental part:
Human PTH(1-34) and calcitonin were purchased from Peptide Institute, Inc. (Osaka, Japan), dissolved in 10 mM acetic acid to 1 mM and stored in a −80° C. freezer.
Cells were cultured in Dulbecco's modified Eagle's medium (DMEM) supplemented with 10% fetal bovine serum (Hyclone), 100 units/ml penicillin G and 100 μg/ml streptomycin sulfate (Invitrogen Corp) at 37° C. in a humidified atmosphere containing 5% CO2.
cAMP signal transduction analysis utilized LLC-PK1 cells not expressing the PTH1R, and HKRK-B7 cells, that is, LLC-PK1 cells overexpressing the human PTH1R at 9.5×10^5 receptors/cell (Takasu et al., J. Bone. Miner. Res. 14:11-20, 1999).
HKRK-B7 or LLC-PK1 cells were seeded into a 96-well plate at 1×10^5 cells/well and incubated overnight. On the following day, 50 μl of cAMP assay buffer (DMEM, 2 mM IBMX, 0.2 mg/ml bovine serum albumin, 35 mM Hepes-NaOH, pH 7.4) containing human PTH(1-34) or each compound was added and the plate was placed in a 37° C. incubator. The cells were incubated for 20 minutes. After removing the medium, the cells were washed with 100 μl of cAMP assay buffer once. The plate was placed on dry ice powder to freeze the cells and then removed from the dry ice. The cells were lysed with 40 μl of 50 mM HCl and frozen again on dry ice. The amount of intracellular cAMP produced was measured using a commercially available cAMP EIA kit (Biotrack cAMP EIA system, GE health care).
Analyses were performed using a variable gradient S-shaped dose-response curve equation.

Series [2] deals with TPTX rat. Nature of the series: Calcemic action in the TPTX rat model. It is filed as in vivo. Particulars: TPTX rats, 30 mg/kg oral; for change of serum Ca concentration from the Pre-value (in words): up to 24 hours after administration. As for the experimental part: Four-week old female Crl:CD(SD) rats were obtained from Charles River Japan (Atsugi Breeding Center), and were acclimated to standard laboratory conditions of 20-26° C. and 35-75% humidity for one week. The rats were given tap water and were fed ad libitum with standard rodent chow (CE-2) (CLEA Japan, Inc.) containing 1.1% calcium, 1.0% phosphoric acid, and 250 IU/100 g of vitamin D3.
TPTX was performed on five-week old rats. Some of the individuals were subjected to sham operation (Sham). Individuals whose serum Ca concentration was less than 8 mg/dL on four days after the operation were selected for use as TPTX rats. On five days after the operation, the rats were assigned to eight TPTX groups and one Sham group (n=5, each group) based on their body weight and serum Ca concentration measured on four days after the operation. The solvent alone was orally administered to the Sham group and the TPTX-Vehicle group at a volume of 10 mL/kg. Each test article was orally administered individually to each TPTX test article group by dissolving it in a solvent at a dose of 30 mg/10 mL/kg. The solvent composition was 10% dimethylsulfoxide (Wako Pure Chemical Industries, Ltd.), 10% Cremophor EL (Sigma-Aldrich Japan LLC), 20% hydroxypropyl-β-cyclodextrin (Nihon Shokuhin Kako Co., Ltd.), glycine (Wako Pure Chemical Industries, Ltd.); and the pH was adjusted to 10. Immediately before administration of each sample, Pre-blood collection was performed, and blood collection was carried out at 2, 6, 10, and 24 hours after administration to measure the serum Ca concentration. Each blood collection was carried out from the jugular vein under isoflurane inhalation anesthesia.
Serum Ca measurement: Serum obtained by centrifugation from the collected blood was measured by using an automatic analyzer TBA-120FR (Toshiba Medical Systems Corporation).
For statistical analysis of the animal studies, data are shown as mean±standard error (SE). Statistical analysis were performed by unpaired test of the SAS Preclinical Package (Ver. 5.00.010720, SAS Institute Japan, Tokyo, Japan).

Series [3] relates to rat hepatocyte. Nature of the series: Metabolic stability using rat hepatocyte. It is filed as in vitro ADME. As for the experimental part: Liver cells were prepared from the liver of rats (SD, female) by a collagenase perfusion method. A compound of the Reference Examples or a Comparative Example was added, and this was incubated at 37° C. for a specified amount of time, followed by addition of a reaction-stopping solution. The concentration of the parent compound at each reaction time was measured using LC/MS/MS, and inherent clearance (μL/10^6 cells/min) was calculated from the slope of the reaction time versus residual rate.
• Cell concentration: 1×10^6 cells/mL • Compound concentration: 1 μM • Medium: Williams' medium E • Reaction time: 0, 15, 30, 60, 120, and 240 minutes • Reaction-stopping solution: acetonitrile/2-propanol (4/6, v/v)

A word on the EC20: it is the point of the concentration-response curve where the effect stands at 20%. The low end stands for greater potency, the high end for weaker potency. In series [1], `Cc1cc(N2C(=O)CNC2=O)cc(C)c1CCS(=O)(=O)N1CCC2(CC1)N=C(c1cccc(OC(F)(F)F)c1)NC2=O` [Comparative Example 2, reference compound] returned an EC20 of 3.1 µM. In addition, in series [2], the “achievement of the therapeutic target range of serum Ca concentration of 7.6 to 8.8 mg/dL” value (“achievement” for short) is reported as “could not be achieved” and the “change of serum Ca concentration from the Pre-value (in words)” value (“change of serum Ca concentration” below) is on record as “smaller positive changes from the Pre-value”.

Take `Cc1cc(N2C(=O)CNC2=O)cc(C)c1CCS(=O)(=O)N1CCC2(CC1)N=C(c1ccc(F)c(C(F)(F)F)c1)NC2=O` [Comparative Example 3, reference compound]: the EC20 in series [1] was found to be 2.0 µM.

As for `CCC1CCC(C2=NC3(CCN(S(=O)(=O)CCc4ccc(N5CC(=O)NC5=O)cc4C)CC3)C(=O)N2)CC1` (stereo not drawn) [Comparative Example 4, reference compound], in series [1], the EC20 is more than 505 µM.

As to `CC[C@H]1CC[C@H](C2=NC3(CCN(S(=O)(=O)CCc4ccc(N5C(=O)NC(=O)C5C)cc4C)CC3)C(=O)N2)CC1` (stereo partly drawn) [Comparative Example 5, reference compound], the concentration for an effect of 20% (EC20) in series [1] was found to be 3.1 µM.

The molecule `CC[C@H]1CC[C@H](C2=NC3(CCN(S(=O)(=O)CCc4ccc(N5C(=O)NC(=O)C5(C)C)cc4C)CC3)C(=O)N2)CC1` [Comparative Example 6, reference compound] registered an EC20 in series [1] of 3.6 µM.

In series [1], `Cc1cc(N2C(=O)NC(=O)C2(C)C)cc(C)c1CCS(=O)(=O)N1CCC2(CC1)N=C(c1ccc(F)c(OC(F)(F)F)c1)NC2=O` [Compound 1, 1-(4-(2-((2-(4-fluoro-3-(trifluoromethoxy)phenyl)-4-oxo-1,3,8-triazaspiro[4.5]deca-1-en-8-yl)sulfonyl)ethyl)-3,5-dimethylphenyl)-5,5-dimethylimidazolidine-2,4-dione] registered an EC20 of 1.3 µM. In series [2], the “achievement” value is “could not be achieved” and the “change of serum Ca concentration” value is “smaller positive changes from the Pre-value”.

As to `Cc1cc(N2C(=O)NC(=O)C2(C)C)cc(C)c1CCS(=O)(=O)N1CCC2(CC1)N=C(c1cccc(Br)c1)NC2=O` [Compound 2, 1-(4-(2-((2-(3-bromophenyl)-4-oxo-1,3,8-triazaspiro[4.5]deca-1-en-8-yl)sulfonyl)ethyl)-3,5-dimethylphenyl)-5,5-dimethylimidazolidine-2,4-dione], the EC20 in series [1] is 2.4 µM. For the same molecule, in series [3], the “rat hepatocyte metabolic stability compared to Comparative Examples 1, 2, 3, 5, and 6 (in words)” value is on record as “increased”.

Usually EC50 stands for the midpoint of the concentration-response curve. Lower therefore signals higher potency in that assay. For the molecule `Cc1cc(N2C(=O)NC(=O)C2(C)C)cc(C)c1CCS(=O)(=O)N1CCC2(CC1)N=C(c1ccc(F)c(C(F)(F)F)c1)NC2=O` [Compound 3, 1-(4-(2-((2-(4-fluoro-3-(trifluoromethyl)phenyl)-4-oxo-1,3,8-triazaspiro[4.5]deca-1-en-8-yl)sulfonyl)ethyl)-3,5-dimethylphenyl)-5,5-dimethylimidazolidine-2,4-dione], the EC20 in series [1] turned out to be 1.5 µM. This molecule returned a half-maximal effective concentration (EC50) in series [1] (concentration at 50% cAMP signaling activity) of 7.2 µM.

In series [1], `Cc1cc(N2C(=O)NC(=O)C2(C)C)cc(C)c1CCS(=O)(=O)N1CCC2(CC1)N=C(c1ccc(OC(F)(F)F)c(F)c1)NC2=O` [Compound 4, 1-(4-(2-((2-(3-fluoro-4-(trifluoromethoxy)phenyl)-4-oxo-1,3,8-triazaspiro[4.5]deca-1-en-8-yl)sulfonyl)ethyl)-3,5-dimethylphenyl)-5,5-dimethylimidazolidine-2,4-dione] had an EC20 of 1.6 µM. Further, the “rat hepatocyte metabolic stability compared to Comparative Examples 1, 2, 3, 5, and 6 (in words)” value in series [3] was “increased”.

In series [1], `Cc1cc(N2C(=O)NC(=O)C2(C)C)cc(C)c1CCS(=O)(=O)N1CCC2(CC1)N=C(c1ccc3c(c1)OC(F)(F)O3)NC2=O` [Compound 5, 1-(4-(2-((2-(2,2-difluorobenzo[d][1,3]dioxol-5-yl)-4-oxo-1,3,8-triazaspiro[4.5]deca-1-en-8-yl)sulfonyl)ethyl)-3,5-dimethylphenyl)-5,5-dimethylimidazolidine-2,4-dione] gave a concentration for an effect of 20% (EC20) of 1.7 µM. Further, the “rat hepatocyte metabolic stability compared to Comparative Examples 1, 2, 3, 5, and 6 (in words)” value in series [3] is recorded as “increased”.

`Cc1cc(N2C(=O)NC(=O)C2(C)C)cc(C)c1CCS(=O)(=O)N1CCC2(CC1)N=C(c1cccc(C(F)(F)F)c1)NC2=O` [Compound 6, 1-(3,5-dimethyl-4-(2-((4-oxo-2-(3-(trifluoromethyl)phenyl)-1,3,8-triazaspiro[4.5]deca-1-en-8-yl)sulfonyl)ethyl)phenyl)-5,5-dimethylimidazolidine-2,4-dione] came in with an EC20 in series [1] of 2.0 µM. Besides, in series [2], the “achievement” value was “achieved the therapeutic target range” and the “change of serum Ca concentration” value is given as “large positive changes from the Pre-value”. The “rat hepatocyte metabolic stability compared to Comparative Examples 1, 2, 3, 5, and 6 (in words)” value in series [3] was “increased”.

The molecule `Cc1cc(N2C(=O)NC(=O)C23CCN(C)CC3)cc(C)c1CCS(=O)(=O)N1CCC2(CC1)N=C(c1ccc(OC(F)(F)F)cc1)NC2=O` [Compound 9, 1-(3,5-dimethyl-4-(2-((4-oxo-2-(4-(trifluoromethoxy)phenyl)-1,3,8-triazaspiro[4.5]deca-1-en-8-yl)sulfonyl)ethyl)phenyl)-8-methyl-1,3,8-triazaspiro[4.5]decane-2,4-dione] registered an EC20 in series [1] of 2.6 µM. In addition, in series [3], the “rat hepatocyte metabolic stability compared to Comparative Examples 1, 2, 3, 5, and 6 (in words)” value is recorded as “increased”.
